Assay [1] has as its target T1, α-L-fucosidase (from bovine liver) (Bos taurus, UniProt Q2KIM0).
T1 construct: a product of Sigma Company, originated from bovine liver; purchased Sigma; host or cells: bovine liver
T1 sequence (Q2KIM0 23-468): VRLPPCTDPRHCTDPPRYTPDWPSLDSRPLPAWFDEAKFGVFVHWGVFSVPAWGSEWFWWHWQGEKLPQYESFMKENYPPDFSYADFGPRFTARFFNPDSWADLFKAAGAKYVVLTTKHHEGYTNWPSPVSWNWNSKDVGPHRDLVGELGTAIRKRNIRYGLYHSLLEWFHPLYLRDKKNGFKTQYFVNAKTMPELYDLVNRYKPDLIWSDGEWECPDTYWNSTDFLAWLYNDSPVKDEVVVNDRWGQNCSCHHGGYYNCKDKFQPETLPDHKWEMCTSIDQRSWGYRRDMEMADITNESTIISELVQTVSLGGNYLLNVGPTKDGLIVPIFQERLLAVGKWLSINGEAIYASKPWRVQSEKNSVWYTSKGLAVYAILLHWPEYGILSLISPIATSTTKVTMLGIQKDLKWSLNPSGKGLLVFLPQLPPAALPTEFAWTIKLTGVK
Kind of assay: α-fucosidase-inhibitory activity assay (Test Example 1). In kind it is biochemical. Particulars: substrate p-nitrophenyl α-L-fucopyranoside, citrate-phosphate buffer pH 6.3, 37° C., 60 minutes, read-out: 50% Inhibiory Concentration (IC50) Enzyme A (converted). The procedure:
This Test Example is a test example for determining the α-fucosidase-inhibitory activity of the compound of the general formula (I) according to this invention.
Assay of the α-fucosidase-inhibitory activity was conducted according to a modification of the method described in the “Journal of Biological Chemistry”, 252, pp.5194-5200 (1977).
(§1) Thus, 0.5 mL of 0.025M citrate-phosphate buffer (pH 6.3), 0.1 mL of the same buffer containing 1.5 mM p-nitrophenyl α-L-fucopyranoside dissolved therein, and 0.1 mL of either water or an aqueous solution containing as the tested compound any one of the compounds of the formulae (Ia), (Ib), (Ic) and (Id) according to this invention were mixed with each other and pre-incubated in a 96-well titer plate at 37° C. for 10 minutes. After the completion of the pre-incubation, to the pre-incubated mixture was added 0.01 mL of 0.025M citrate-phosphate buffer containing α-L-fucosidase (a product of Sigma Company, originated from bovine liver) dissolved therein, and thereafter the enzymatic reaction was conducted at 37° C. for 60 minutes. After the enzymatic reaction, to the resulting reaction solution was added 1.0 mL of 0.2M glycine-sodium hydroxide buffer (pH 10.5), in order to terminate the enzymatic reaction. Thereafter, the absorbance (designated as “a”) of light at 405 nm of the resulting reaction solution was measured. Concurrently, measurement was made of the absorbance (designated as “b”) of light at 405 nm of the reaction solution as obtained in the control test where the enzymatic reaction was conducted without addition of the test compound. Further, measurements were made of the absorbance (designated as “a′”) and the absorbance (designated as “b′”) of light at 405 nm of the reaction solutions as obtained in the blank tests where the enzymatic reaction had not been conducted in the assay test, and also in the control test for the blank tests, respectively.
(§2) The rate of inhibition to α-L-fucosidase was calculated by the equation: […]

In assay [2] the target is β-D-glucosidase (from almonds). Kind of assay: β-glucosidase-inhibitory activity assay (Test Example 2). It is filed as biochemical, almond. Particulars: substrate p-nitrophenyl β-D-glucoside, same manner as Test Example 1. The procedure: as §1, §2
This Test Example is a test example for determining the α-glucosidase or β-glucosidase-inhibitory activity of the compounds according to this invention.
The evaluation of the α- or β-glucosidase-inhibitory activity was conducted according to a modification of the method described in the “Agricultural and Biological Chemistry”, 26, p.203 (1962). Namely, the test was conducted in the same manner as the test for the enzyme-inhibitory activity described in Test Example 1, except that either α-glucosidase originated from yeast, or β-glucosidase originated from almond (both enzymes are products of Sigma Company) was used as the glycosidase enzyme, and that p-nitrophenyl α-D-glucoside or p-nitrophenyl β-D-glucoside was used as the substrate. Furthermore, the enzyme-inhibitory activity was measured in the same manner as in Test Example 1, and the 50% inhibitions of the tested compounds against the enzymes were calculated, respectively.

As to `CC(=O)N[C@@H]1NC[C@@H](C)[C@@H](O)[C@H]1O` [Compound of the Formula (Ia), (2S,3S,4R,5R)-2-acetamido-5-methylpiperidine-3,4-diol], in assay [1], the IC50 is 584 nM. The “50% Inhibiory Concentration (IC50) Enzyme C” value (“50% Inhibiory Concentration” for short) in assay [2] was 2.3 µg/mL.

In the case of `C[C@@H]1CN[C@@H](NC(=O)C(F)(F)F)[C@H](O)[C@@H]1O` [Compound of the Formula (Ib), (2S,3S,4R,5R)-2-trifluoroacetamido-5-methyl-piperidine-3,4-diol], in assay [1], the IC50 was 12.4 nM. For the same molecule, the “50% Inhibiory Concentration” value in assay [2] amounted to 55 µg/mL.

In the case of `C[C@@H]1CN[C@@H](NC(=O)C(Cl)(Cl)Cl)[C@H](O)[C@@H]1O` [Compound of the Formula (Ic), (2S,3S,4R,5R)-2-trichloroacetamido-5-methyl-piperidine-3,4-diol], the IC50 in assay [1] was 10.3 nM. Moreover, the “50% Inhibiory Concentration” value in assay [2] stood at 50 µg/mL.

Take `C[C@@H]1CN[C@@H](N2C(=O)c3ccccc3C2=O)[C@H](O)[C@@H]1O` [Compound of the Formula (Id), (2S,3S,4R,5R)-2-phthalimido-5-methylpiperidine-3,4-diol]: in assay [1], the IC50 is 14.5 nM. For the same molecule, the “50% Inhibiory Concentration” value in assay [2] came to 60 µg/mL.

For `C[C@@H]1CN[C@@H](N)[C@H](O)[C@@H]1O` [Compound of the Formula (Ie), (2R,3S,4R,5R)-2-amino-5-methylpiperidine-3,4-diol], the IC50 in assay [1] was 20.5 nM. Also, the “50% Inhibiory Concentration” value in assay [2] turned out to be 50 µg/mL.

The values above are taken from patent US6610709B1, “2-n-substituted or unsubstituted-2-amino-5-methylpiperidine-3,4-diols and processes for the preparation thereof” (Zaidan Hojin Biseibutsu Kagaku Kenkyu Kai, priority 1999, dated 2003).
